According to the Kinase Knowledgebase extract (Sharma et al. 2016):

Target: ROCK2 (human) (UniProt O75116)
Assay: Inhibition of ROCK2 Kinase Activity

Sequence of ROCK2 (human) (O75116 whole entry, looked up): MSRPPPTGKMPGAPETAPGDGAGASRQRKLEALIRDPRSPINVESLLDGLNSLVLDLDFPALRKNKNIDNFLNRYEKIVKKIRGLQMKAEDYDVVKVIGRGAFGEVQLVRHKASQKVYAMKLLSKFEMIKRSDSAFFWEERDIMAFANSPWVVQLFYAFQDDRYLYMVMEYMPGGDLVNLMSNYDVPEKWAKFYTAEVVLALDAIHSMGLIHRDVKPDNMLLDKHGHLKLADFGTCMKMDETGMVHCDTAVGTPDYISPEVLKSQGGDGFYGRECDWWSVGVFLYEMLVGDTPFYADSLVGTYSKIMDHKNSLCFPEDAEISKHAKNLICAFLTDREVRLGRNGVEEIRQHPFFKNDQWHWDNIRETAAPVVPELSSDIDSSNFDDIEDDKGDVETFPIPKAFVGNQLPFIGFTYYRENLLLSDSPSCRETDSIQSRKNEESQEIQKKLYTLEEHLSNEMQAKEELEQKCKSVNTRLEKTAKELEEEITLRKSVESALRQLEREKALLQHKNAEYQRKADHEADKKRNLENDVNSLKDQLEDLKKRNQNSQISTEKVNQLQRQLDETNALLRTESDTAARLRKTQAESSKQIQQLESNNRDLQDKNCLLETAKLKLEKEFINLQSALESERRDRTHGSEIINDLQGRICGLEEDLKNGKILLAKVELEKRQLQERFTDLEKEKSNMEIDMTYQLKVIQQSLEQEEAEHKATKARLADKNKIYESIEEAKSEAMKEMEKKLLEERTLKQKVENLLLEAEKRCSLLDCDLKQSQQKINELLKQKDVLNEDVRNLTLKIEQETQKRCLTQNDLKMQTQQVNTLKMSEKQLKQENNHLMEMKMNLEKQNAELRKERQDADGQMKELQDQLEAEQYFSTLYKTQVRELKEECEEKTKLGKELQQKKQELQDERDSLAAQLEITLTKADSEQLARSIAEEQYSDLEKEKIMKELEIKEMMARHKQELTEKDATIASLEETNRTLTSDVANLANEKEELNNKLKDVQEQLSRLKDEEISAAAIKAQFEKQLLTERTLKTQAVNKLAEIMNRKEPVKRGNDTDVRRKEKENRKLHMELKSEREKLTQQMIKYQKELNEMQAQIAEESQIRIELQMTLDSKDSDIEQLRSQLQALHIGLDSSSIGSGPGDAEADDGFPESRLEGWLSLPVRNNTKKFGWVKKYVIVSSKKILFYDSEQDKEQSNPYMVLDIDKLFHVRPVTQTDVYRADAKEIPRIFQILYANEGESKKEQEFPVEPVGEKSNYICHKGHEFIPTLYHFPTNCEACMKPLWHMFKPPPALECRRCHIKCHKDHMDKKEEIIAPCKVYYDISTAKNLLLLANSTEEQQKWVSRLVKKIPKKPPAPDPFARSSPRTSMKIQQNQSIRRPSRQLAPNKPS

SMILES | IC50 [µM]
COc1ccc(C(=O)NCc2nc(-c3c[nH]c4ncccc34)n[nH]2)c(O)c1 | > 5
O=C(NCc1nc(-c2c[nH]c3ncccc23)n[nH]1)c1cccc(Br)c1 | > 5
O=C(C=Cc1ccc2c(c1)OCO2)NCc1nc(-c2c[nH]c3ncccc23)n[nH]1 | > 5
O=C(NCc1nc(-c2c[nH]c3ncccc23)n[nH]1)c1cc(F)c(F)cc1[N+](=O)[O-] | > 5
Cc1cc(C)c(C(=O)NCc2nc(-c3ccncc3)n[nH]2)c(C)c1 | > 5
Cc1ccc(C(=O)NCc2nc(-c3ccncc3)n[nH]2)cc1Br | > 5
O=C(NCc1nc(-c2c[nH]c3ncccc23)n[nH]1)c1cc2cc(Cl)ccc2o1 | > 5
COc1ccc(Cl)cc1C(=O)NCc1nc(-c2ccncc2)n[nH]1 | > 5
O=C(NCc1nc(-c2ccncc2)n[nH]1)c1cccnc1 | > 5
O=C(NCc1nc(-c2ccncc2)n[nH]1)c1ccccc1OCc1ccccc1 | > 5
CC(C)c1cc(C(=O)NCc2nc(-c3c[nH]c4ncccc34)n[nH]2)c(O)c(C(C)C)c1 | > 5
CC(=O)Nc1cccc(C(=O)NCc2nc(-c3ccncc3)n[nH]2)c1 | > 5
O=Cc1ccc(C(=O)NCc2nc(-c3ccncc3)n[nH]2)cc1 | > 5
CC(C)CC(=O)NCc1nc(-c2c[nH]c3ncccc23)n[nH]1 | > 5
CC(C)C(NC(=O)OC(C)(C)C)C(=O)NCc1nc(-c2c[nH]c3ncccc23)n[nH]1 (stereo not given) | > 5
O=C(NCc1nc(-c2ccncc2)n[nH]1)c1ccc(Cl)cc1O | > 5

SMILES | IC50 [µM]
Cc1ccc(C(=O)NCc2nc(-c3ccncc3)n[nH]2)cc1 | > 5
CCOc1ccc2ccccc2c1C(=O)NCc1nc(-c2ccncc2)n[nH]1 | > 5
COc1ccc(C(=O)NCc2nc(-c3c[nH]c4ncccc34)n[nH]2)c(OC)c1OC | > 5
O=C(NCc1nc(-c2ccncc2)n[nH]1)c1cc(O)ccc1O | ≤ 5
CC(=O)NCc1nc(-c2c[nH]c3ncccc23)n[nH]1 | > 5
Cc1cccc(C(=O)NCc2nc(-c3ccncc3)n[nH]2)c1O | ≤ 5
Cc1ccc(F)cc1C(=O)NCc1nc(-c2c[nH]c3ncccc23)n[nH]1 | > 5
O=C(NCc1nc(-c2c[nH]c3ncccc23)n[nH]1)c1cccc(O)c1O | > 5
O=C(NCc1nc(-c2c[nH]c3ncccc23)n[nH]1)c1cc(F)c(Cl)cc1F | > 5
O=C(NCc1ncc(-c2ccncc2)s1)c1cccs1 | > 5
Oc1ccc(C(O)CCc2nc(-c3ccncc3)n[nH]2)cc1 (stereo not given) | > 5
O=C(NCc1nc(-c2c[nH]c3ncccc23)n[nH]1)c1ccc(Oc2cccc(O)c2)cc1 | > 5
O=C(NCc1nc(-c2c[nH]c3ncccc23)n[nH]1)c1cc(Cl)ccc1[N+](=O)[O-] | > 5
O=C(NCc1nc(-c2c[nH]c3ncccc23)n[nH]1)c1cccc(F)c1F | > 5
CC(C)(C)OC(=O)N1CCNC(C(=O)NCc2nc(-c3c[nH]c4ncccc34)n[nH]2)C1 (stereo not given) | > 5

Next, values leading:

IC50 [µM] | SMILES
> 5 | O=C(NCc1nc(-c2c[nH]c3ncccc23)n[nH]1)c1cc(O)c(O)c(O)c1
> 5 | COc1ccc(C=CC(=O)NCc2nc(-c3ccncc3)n[nH]2)cc1O
> 5 | CCC(C)C(NC(=O)OC(C)(C)C)C(=O)NCc1nc(-c2c[nH]c3ncccc23)n[nH]1 (stereo not given)
> 5 | CC(C)(C)OC(=O)NC(Cc1ccc(O)cc1)C(=O)NCc1nc(-c2ccncc2)n[nH]1 (stereo not given)
> 5 | COc1cccc(C(=O)NCc2nc(-c3ccncc3)no2)c1
≤ 5 | Cc1ccc(C(=O)NCc2nc(-c3ccncc3)n[nH]2)c(O)c1
> 5 | Cc1ccccc1OCC(=O)NCc1nc(-c2c[nH]c3ncccc23)n[nH]1
> 5 | COc1ccccc1CCC(=O)NCc1nc(-c2ccncc2)n[nH]1
> 5 | O=C(NCc1nc(-c2c[nH]c3ncccc23)n[nH]1)c1cc(O)ccc1O
> 5 | Cc1ccc(C(=O)NCc2nc(-c3c[nH]c4ncccc34)n[nH]2)cc1C
> 5 | O=C(NCc1nc(-c2ccncc2)n[nH]1)c1c(O)ccc2ccccc12
> 5 | COC1=C(O)C=CC(C=CC(=O)NCc2nc(-c3c[nH]c4ncccc34)n[nH]2)=CC1
> 5 | O=C(NCc1nc(-c2c[nH]c3ncccc23)n[nH]1)c1c(F)cccc1F
> 5 | O=C(NCc1nc(-c2c[nH]c3ncccc23)n[nH]1)C(Cl)(Cl)Cl
> 5 | O=C(Cc1ccc2c(c1)OCO2)NCc1nc(-c2ccncc2)n[nH]1
> 5 | O=C(NCc1nc(-c2c[nH]c3ncccc23)n[nH]1)c1ccncc1Cl
> 5 | O=C(Cc1ccc(C(F)(F)F)cc1)NCc1nc(-c2ccncc2)n[nH]1
> 5 | COc1ccccc1C=CC(=O)NCc1nc(-c2ccncc2)n[nH]1
> 5 | O=C(NCc1nc(-c2c[nH]c3ncccc23)n[nH]1)c1cccnc1
> 5 | CS(=O)(=O)Nc1ccccc1C(=O)NCc1nc(-c2ccncc2)n[nH]1
> 5 | Cc1c(C(=O)NCc2nc(-c3ccncc3)n[nH]2)oc2ccccc12
> 5 | CC(CC(=O)NCc1nc(-c2c[nH]c3ncccc23)n[nH]1)CC(C)(C)C (stereo not given)

IC50 [µM] | SMILES
> 5 | CCN(CC)c1ccc(C(=O)NCc2nc(-c3c[nH]c4ncccc34)n[nH]2)cc1
> 5 | Cc1nc(Br)sc1C(=O)NCc1nc(-c2ccncc2)n[nH]1
> 5 | O=C(NCc1nc(-c2c[nH]c3ncccc23)n[nH]1)c1c(Cl)cc(Cl)cc1Cl
> 5 | CC(C)(C)OC(=O)NC(Cc1ccccn1)C(=O)NCc1nc(-c2ccncc2)n[nH]1 (stereo not given)
> 5 | CCC(C(=O)NCc1nc(-c2c[nH]c3ncccc23)n[nH]1)c1ccccc1 (stereo not given)
> 5 | O=C(NCc1nc(-c2c[nH]c3ncccc23)n[nH]1)c1ccc(Cl)cc1O
> 5 | CN(Cc1nc(-c2ccncc2)n[nH]1)C(=O)c1cccs1
> 5 | CCCOc1ccc(C(=O)NCc2nc(-c3ccncc3)n[nH]2)cc1
> 5 | O=C(NCc1nc(-c2c[nH]c3ncccc23)n[nH]1)c1ccccc1[N+](=O)[O-]
> 5 | O=C(NCc1nc(-c2c[nH]c3ncccc23)n[nH]1)C1CCCN1C(=O)OCc1ccccc1 (stereo not given)
> 5 | CC1=NN(c2ccc(C(=O)NCc3nc(-c4ccncc4)n[nH]3)cc2)C(=O)C1
> 5 | O=C(NCc1nc(-c2c[nH]c3ncccc23)n[nH]1)c1ccc(Cl)nc1
> 5 | CC(=O)Nc1cccc(C(=O)NCc2nc(-c3c[nH]c4ncccc34)n[nH]2)c1
> 5 | COc1ccc2cc(C(C)C(=O)NCc3nc(-c4ccncc4)n[nH]3)ccc2c1 (stereo not given)
≤ 5 | CC(=O)Oc1ccc(C(=O)NCc2nc(-c3c[nH]c4ncccc34)n[nH]2)cc1
> 5 | Cc1ccccc1CCC(=O)NCc1nc(-c2c[nH]c3ncccc23)n[nH]1
> 5 | O=C(NCc1nc(-c2ccncc2)n[nH]1)c1ccnc(Cl)c1
≤ 5 | O=C(NCc1nc(-c2ccncc2)n[nH]1)c1ccc(O)cc1O
> 5 | O=C(Cc1cccc(O)c1)NCc1nc(-c2c[nH]c3ncccc23)n[nH]1
≤ 5 | CC(=O)c1ccc(C(=O)NCc2nc(-c3c[nH]c4ncccc34)n[nH]2)cc1
> 5 | O=C(NCc1nc(-c2ccncc2)n[nH]1)c1ccc(Cl)cc1[N+](=O)[O-]
> 5 | O=C(NCc1nc(-c2ccncc2)n[nH]1)c1csc2ccccc12
